Literature values in patent US11129815B2, “Solid dispersions comprising tacrolimus” (Veloxis Pharmaceuticals A/S, priority 2003, dated 2021).

How the values were obtained:
[1] = not given; remark: listed apart in the source

solubility in chloroform (chloroform): very soluble
solubility in ethanol (ethanol): freely soluble
solubility in methanol (methanol): very soluble
solubility in water (water): practically insoluble
bioavailability ([1]; after oral administration): ≤ 20%
mean time-to-peak concentration (tmax) ([1]; oral administration, healthy subjects or kidney or liver transplanted patients): 1 to 2 h
Structure (SMILES): C=CC[C@@H]1/C=C(\C)C[C@H](C)C[C@H](OC)[C@H]2O[C@@](O)(C(=O)C(=O)N3CCCC[C@H]3C(=O)O[C@H](/C(C)=C/[C@@H]3CC[C@@H](O)[C@H](OC)C3)[C@H](C)[C@@H](O)CC1=O)[C@H](C)C[C@@H]2OC [Tacrolimus]
